Like-named read-outs stand apart in the source and are kept apart here.
Tests used:
[1] = tested on: cyclic AMP/phosphodiesterase; assay: Inhibitory action of cyclic AMP/phosphodiesterase (crude enzyme fraction from sonicated rabbit platelets); format: biochemical; conditions: 40 min
Method: The pharmacological activity of the present compounds [1] is illustrated below. (1) Inhibitory action of cyclic AMP/phosphodiesterase:
A mixture of 2 mM MgCl2 /40 mM Tris-buffer (pH 7.5) 700 μl, enzyme solution (a crude enzyme fraction obtained from sonicated rabbit platelets) 100 μl, and a test sample solution (compound [1] dissolved in 50% aqueous methanol) 100 μl is incubated at 30° C. for 5 mins. 3', 5'-cyclic AMP 100 μl (50 μg) is added thereto and the mixture is further incubated for 40 mins. The reaction is stopped by heating 100° C. for 5 mins. The amount of 5'-AMP in the supernatant obtained by centrifugation at 3000 rpm for 5 mins. is measured using HPLC.
As shown in that table, the compound of the present invention has cyclic AMP/phosphodiesterase inhibitory activity at 1-10 μg/ml.

[2] = tested on: rabbit platelet-rich plasma; assay: Platelet aggregation inhibition (rabbit platelet-rich plasma, aggregometer); format: cell-based; conditions: Oryctolagus cuniculus, compound final concentration 10 μM, read-out: Inhibitory ratio
Method: (2) Platelet aggregation inhibition:
A rabbit platelet-rich plasma (5×10^5 /mm^3), to which was added 1/10 volume of a 3.8% sodium citrate solution, 216 μl, is incubated in an aggregometer at 37° C., 1000 rpm, for 3 mins. A test sample solution 12 μl (final concentration 10 μM) is added thereto and the mixture is further incubated for 3 mins., and collagen (aggregation agent) 2.5 μg/ml, ADP 2.5 μM, platelet activating factor (PAF) 0.05 μg/ml or 0.25 mM arachidonic acid (A.A.) 12 μl is added thereto as an aggregating agent, and the platelet aggregation activity is measured.

[3] = aggregating agent PAF 0.05 μg/ml
[4] = aggregating agent arachidonic acid (A.A.) 0.25 mM
[5] = aggregating agent collagen 2.5 μg/ml

CCCCCCCCCc1nc2cc(OCCCC(=O)O)ccc2[nH]c1=O [Compound 960]
Inhibitory ratio ([1]; 1 μg/ml): 34.8%
Inhibitory ratio ([1]; 10 μg/ml): 61.7%
Inhibitory ratio ([1]; 100 μg/ml): 87.4%

CN(C(=O)CCCOc1ccc2[nH]c(=O)c(-c3ccccc3)nc2c1)C1CCCCC1 [Compound 986]
Inhibitory ratio ([1]; 1 μg/ml): 66.2%
Inhibitory ratio ([1]; 10 μg/ml): 80.5%

CCc1nc2cc(OCCCC(=O)N3CCN(c4ccccc4OC)CC3)ccc2[nH]c1=O [Compound 973]
Inhibitory ratio ([1]; 1 μg/ml): 37.6%
Inhibitory ratio ([1]; 10 μg/ml): 42.2%

CN(C(=O)CCCOc1ccc2c(c1)NCC(=O)N2)C1CCCCC1 [Compound 929, 6-[3-(N-cyclohexyl-N-methyl-aminocarbonyl)propoxy]-2-oxo-1,2,3,4-tetrahydroquinoxaline]
inhibition at 10 µM ([2]; aggregating agent ADP 2.5 μM): 49.4%
inhibition at 10 µM [2, 3]: 30.4%
inhibition at 10 µM [2, 4]: 41.8%
inhibition at 10 µM [2, 5]: 50.8%
Inhibitory ratio ([1]; 1 μg/ml): 11.2%
Inhibitory ratio ([1]; 10 μg/ml): 53.9%
Inhibitory ratio ([1]; 100 μg/ml): 88.5%

CCCCc1nc2cc(OCCCC(=O)O)ccc2[nH]c1=O [Compound 958]
Inhibitory ratio ([1]; 1 μg/ml): 69.9%
Inhibitory ratio ([1]; 10 μg/ml): 91.4%
Inhibitory ratio ([1]; 100 μg/ml): 93.7%

COc1ccccc1N1CCN(C(=O)CCCOc2ccc3[nH]c(=O)c(C)nc3c2)CC1 [Compound 968]
Inhibitory ratio ([1]; 1 μg/ml): 17.1%
Inhibitory ratio ([1]; 10 μg/ml): 60.3%

CCN(C(=O)CCCCOc1ccc2[nH]c(=O)cnc2c1)C1CCCCC1 [Compound 921]
inhibition at 10 µM ([2]; aggregating agent ADP 2.5 μM): 62.6%
inhibition at 10 µM [2, 3]: 35.3%
inhibition at 10 µM [2, 4]: 44.7%
inhibition at 10 µM [2, 5]: 81%
Inhibitory ratio ([1]; 1 μg/ml): 49.8%
Inhibitory ratio ([1]; 10 μg/ml): 84.5%
Inhibitory ratio ([1]; 100 μg/ml): 93.0%

O=C(CCCOc1ccc2[nH]c(=O)cnc2c1)N(CCO)C1CCCCC1 [Compound 917]
inhibition at 10 µM ([2]; aggregating agent ADP 2.5 μM): 36.9%
inhibition at 10 µM [2, 3]: 36.7%
inhibition at 10 µM [2, 4]: 32.6%
inhibition at 10 µM [2, 5]: 57.4%
Inhibitory ratio ([1]; 1 μg/ml): 16.6%
Inhibitory ratio ([1]; 10 μg/ml): 59.3%
Inhibitory ratio ([1]; 100 μg/ml): 87.7%

O=C(CCCCOc1ccc2[nH]c(=O)cnc2c1)N(CCO)C1CCCCC1 [Compound 923]
inhibition at 10 µM ([2]; aggregating agent ADP 2.5 μM): 68%
inhibition at 10 µM [2, 3]: 29%
inhibition at 10 µM [2, 4]: 56.7%
inhibition at 10 µM [2, 5]: 75.7%
Inhibitory ratio ([1]; 1 μg/ml): 43.7%
Inhibitory ratio ([1]; 10 μg/ml): 81.8%
Inhibitory ratio ([1]; 100 μg/ml): 92.4%

CCCCc1nc2cc(OCCCC(=O)OCC)ccc2[nH]c1=O [Compound 948]
Inhibitory ratio ([1]; 1 μg/ml): 62.9%
Inhibitory ratio ([1]; 10 μg/ml): 87.9%
Inhibitory ratio ([1]; 100 μg/ml): 92.7%

CCOC(=O)CCCOc1ccc2c(c1)NCC(=O)N2 [Compound 925, 6-(3-ethoxycarbonylpropoxy)-2-oxo-1,2,3,4-tetrahydroquinoxaline]
inhibition at 10 µM ([2]; aggregating agent ADP 2.5 μM): 56.5%
inhibition at 10 µM [2, 3]: 29.5%
inhibition at 10 µM [2, 4]: 46.5%
inhibition at 10 µM [2, 5]: 53.8%
Inhibitory ratio ([1]; 1 μg/ml): 5.3%
Inhibitory ratio ([1]; 10 μg/ml): 26.4%
Inhibitory ratio ([1]; 100 μg/ml): 71.3%

O=C(O)CCCOc1ccc2[nH]c(=O)c(-c3ccccc3)nc2c1 [Compound 964]
Inhibitory ratio ([1]; 1 μg/ml): 43.8%
Inhibitory ratio ([1]; 10 μg/ml): 78.8%
Inhibitory ratio ([1]; 100 μg/ml): 90.5%

CN(C(=O)CCCCOc1ccc2[nH]c(=O)cnc2c1)C1CCCCC1 [Compound 920]
inhibition at 10 µM ([2]; aggregating agent ADP 2.5 μM): 49.3%
inhibition at 10 µM [2, 3]: 26.9%
inhibition at 10 µM [2, 4]: 30.2%
inhibition at 10 µM [2, 5]: 52.5%
Inhibitory ratio ([1]; 1 μg/ml): 42.9%
Inhibitory ratio ([1]; 10 μg/ml): 81.7%
Inhibitory ratio ([1]; 100 μg/ml): 75.1%

CCCCCCc1nc2cc(OCCCC(=O)OCC)ccc2[nH]c1=O [Compound 949]
Inhibitory ratio ([1]; 1 μg/ml): 40.9%
Inhibitory ratio ([1]; 10 μg/ml): 53.7%

CCOC(=O)CCCOc1ccc2[nH]c(=O)c(C)nc2c1 [Compound 945]
inhibition at 10 µM [2, 5]: 54.2%
Inhibitory ratio ([1]; 1 μg/ml): 44.3%
Inhibitory ratio ([1]; 10 μg/ml): 83.5%
Inhibitory ratio ([1]; 100 μg/ml): 88.9%

Cc1nc2cc(OCCCC(=O)N(C)C3CCCCC3)ccc2[nH]c1=O [Compound 965]
Inhibitory ratio ([1]; 1 μg/ml): 68.9%
Inhibitory ratio ([1]; 10 μg/ml): 87.3%

CCOC(=O)CCCOc1ccc2[nH]c(=O)c(CC)nc2c1 [Compound 946]
inhibition at 10 µM ([2]; aggregating agent ADP 2.5 μM): 91.5%
inhibition at 10 µM [2, 3]: 90.7%
inhibition at 10 µM [2, 4]: 85.1%
inhibition at 10 µM [2, 5]: 79.2%
Inhibitory ratio ([1]; 1 μg/ml): 78.7%
Inhibitory ratio ([1]; 10 μg/ml): 92.5%

CCCc1nc2cc(OCCCC(=O)N(CCO)C3CCCCC3)ccc2[nH]c1=O [Compound 975]
Inhibitory ratio ([1]; 1 μg/ml): 59.5%
Inhibitory ratio ([1]; 10 μg/ml): 88.9%
Inhibitory ratio ([1]; 100 μg/ml): 93.5%

CCOC(=O)CCCCOc1ccc2c(c1)NCC(=O)N2 [Compound 927]
Inhibitory ratio ([1]; 1 μg/ml): 10.5%
Inhibitory ratio ([1]; 10 μg/ml): 47.7%
Inhibitory ratio ([1]; 100 μg/ml): 76.1%

CCCCc1nc2cc(OCCCC(=O)N(C)C3CCCCC3)ccc2[nH]c1=O [Compound 976]
Inhibitory ratio ([1]; 1 μg/ml): 51.1%
Inhibitory ratio ([1]; 10 μg/ml): 84.5%

COc1ccccc1N1CCN(C(=O)CCCOc2ccc3[nH]c(=O)cnc3c2)CC1 [Compound 918]
Inhibitory ratio ([1]; 1 μg/ml): 19.8%
Inhibitory ratio ([1]; 10 μg/ml): 61.0%
Inhibitory ratio ([1]; 100 μg/ml): 87.9%

CCOC(=O)CCCOc1ccc2[nH]c(=O)c(-c3ccccc3)nc2c1 [Compound 954]
Inhibitory ratio ([1]; 1 μg/ml): 42.4%
Inhibitory ratio ([1]; 10 μg/ml): 54.2%

CCc1nc2cc(OCCCC(=O)N(C)C3CCCCC3)ccc2[nH]c1=O [Compound 971]
Inhibitory ratio ([1]; 1 μg/ml): 84.4%
Inhibitory ratio ([1]; 10 μg/ml): 93.0%

O=C(CCCCOc1ccc2[nH]c(=O)cnc2c1)N(Cc1ccccc1)C1CCCCC1 [Compound 922]
Inhibitory ratio ([1]; 1 μg/ml): 61.7%
Inhibitory ratio ([1]; 10 μg/ml): 88.1%
Inhibitory ratio ([1]; 100 μg/ml): 91.1%

CCOC(=O)CCCCOc1ccc2[nH]c(=O)cnc2c1 [Compound 919]
Inhibitory ratio ([1]; 1 μg/ml): 23.9%
Inhibitory ratio ([1]; 10 μg/ml): 65.2%
Inhibitory ratio ([1]; 100 μg/ml): 92.4%

O=C(CCCOc1ccc2[nH]c(=O)cnc2c1)N(Cc1ccccc1)C1CCCCC1 [Compound 916]
Inhibitory ratio ([1]; 1 μg/ml): 47.3%
Inhibitory ratio ([1]; 10 μg/ml): 78.0%
Inhibitory ratio ([1]; 100 μg/ml): 85.7%

CCCc1nc2cc(OCCCC(=O)N(C)C3CCCCC3)ccc2[nH]c1=O [Compound 974]
Inhibitory ratio ([1]; 1 μg/ml): 73.2%
Inhibitory ratio ([1]; 10 μg/ml): 91.7%

CCCCCCc1nc2cc(OCCCC(=O)N(CCO)C3CCCCC3)ccc2[nH]c1=O [Compound 978]
Inhibitory ratio ([1]; 1 μg/ml): 26.2%
Inhibitory ratio ([1]; 10 μg/ml): 40.1%

CCc1nc2cc(OCCCC(=O)O)ccc2[nH]c1=O [Compound 956]
Inhibitory ratio ([1]; 1 μg/ml): 83.9%
Inhibitory ratio ([1]; 10 μg/ml): 92.9%
Inhibitory ratio ([1]; 100 μg/ml): 95.0%

CCOC(=O)CCCOc1ccc2[nH]c(=O)cnc2c1 [Compound 914, 6-(3-ethoxycarbonylpropoxy)-2-oxo-1,2-dihydroquinoxaline]
Inhibitory ratio ([1]; 1 μg/ml): 18.1%
Inhibitory ratio ([1]; 10 μg/ml): 34.3%
Inhibitory ratio ([1]; 100 μg/ml): 54.4%

CCN(CC)C(=O)CCCOc1ccc2[nH]c(=O)c(-c3ccccc3)nc2c1 [Compound 988]
Inhibitory ratio ([1]; 1 μg/ml): 46.4%
Inhibitory ratio ([1]; 10 μg/ml): 76.9%

CCCc1nc2cc(OCCCC(=O)O)ccc2[nH]c1=O [Compound 957]
Inhibitory ratio ([1]; 1 μg/ml): 71.4%
Inhibitory ratio ([1]; 10 μg/ml): 90.7%
Inhibitory ratio ([1]; 100 μg/ml): 94.0%

Cc1nc2cc(OCCCC(=O)N3CCC(c4ccccc4)CC3)ccc2[nH]c1=O [Compound 970]
Inhibitory ratio ([1]; 1 μg/ml): 24.1%
Inhibitory ratio ([1]; 10 μg/ml): 51.5%

O=C(O)CCCOc1ccc2[nH]c(=O)cnc2c1 [Compound 938, 6-(3-carboxypropoxy)-2-oxo-1,2-dihydroquinoxaline]
Inhibitory ratio ([1]; 1 μg/ml): 17.9%
Inhibitory ratio ([1]; 10 μg/ml): 63.1%
Inhibitory ratio ([1]; 100 μg/ml): 88.2%

COc1ccccc1N1CCN(C(=O)CCCCOc2ccc3[nH]c(=O)cnc3c2)CC1 [Compound 924]
Inhibitory ratio ([1]; 1 μg/ml): 24.6%
Inhibitory ratio ([1]; 10 μg/ml): 63.5%
Inhibitory ratio ([1]; 100 μg/ml): 70.2%

Cc1nc2cc(OCCCC(=O)N(Cc3ccccc3)C3CCCCC3)ccc2[nH]c1=O [Compound 969]
Inhibitory ratio ([1]; 1 μg/ml): 72.7%
Inhibitory ratio ([1]; 10 μg/ml): 82.5%

O=c1cnc2cc(OCCCCc3nnnn3C3CCCCC3)ccc2[nH]1 [Compound 913, 6-[4-(1-cyclohexyl-tetrazole-5-yl)-butoxy]-2-oxo-1,2-dihydroquinoxaline]
Inhibitory ratio ([1]; 1 μg/ml): 19.2%
Inhibitory ratio ([1]; 10 μg/ml): 80.3%

Cc1nc2cc(OCCCC(=O)O)ccc2[nH]c1=O [Compound 955, 3-methyl-6-(3-carboxypropoxy)-2-oxo-1,2-dihydroquinoxaline]
Inhibitory ratio ([1]; 1 μg/ml): 44.2%
Inhibitory ratio ([1]; 10 μg/ml): 82.3%
Inhibitory ratio ([1]; 100 μg/ml): 93.0%

O=C(CCCOc1ccc2[nH]c(=O)c(-c3ccccc3)nc2c1)N(CCO)C1CCCCC1 [Compound 987]
Inhibitory ratio ([1]; 1 μg/ml): 57.4%
Inhibitory ratio ([1]; 10 μg/ml): 83.3%
Inhibitory ratio ([1]; 100 μg/ml): 90.2%

CCCCCCc1nc2cc(OCCCC(=O)O)ccc2[nH]c1=O [Compound 959]
Inhibitory ratio ([1]; 1 μg/ml): 43.4%
Inhibitory ratio ([1]; 10 μg/ml): 80.5%
Inhibitory ratio ([1]; 100 μg/ml): 91.0%

CCN(CC)C(=O)CCCOc1ccc2[nH]c(=O)c(C)nc2c1 [Compound 967]
Inhibitory ratio ([1]; 1 μg/ml): 38.0%
Inhibitory ratio ([1]; 10 μg/ml): 81.0%
Inhibitory ratio ([1]; 100 μg/ml): 92.8%
